As usually defined, the pIC50 is the negative decadic logarithm of the IC50, by convention in mol/L. The term DC50 denotes the concentration at which degradation of the target reaches its halfway point. The IC50 is the concentration that inhibits the measured activity by half. A lower IC50 goes with greater potency in that assay.

SMILES strings stand for the structures. pIC50: −log10 of the molar value.

We go through six molecules from ChEMBL document CHEMBL5512604, “Small molecules targeting selected histone methyltransferases (HMTs) for cancer treatment: Current progress and novel strategies” (Eur J Med Chem, 2024).

The test system of one data set is MDA-MB-453. The data set is described as follows: Antiproliferative activity against human MDA-MB-453 cells assessed as inhibition of cell viability incubated for 5 days by CCK8 assay. The class given is functional, cell-based. The note with it: MDA-MB-453, 120 h.
For data set [1], the target named is Histone-lysine N-methyltransferase EZH2 (Homo sapiens, UniProt Q15910). The data set is described as follows: Displacement of [3H-SAM] from full-length EZH2 (2 to 746 residues) (unknown origin) using a core histone substrate.
Sequence of Histone-lysine N-methyltransferase EZH2 (Q15910 whole entry, the tested form may be a part): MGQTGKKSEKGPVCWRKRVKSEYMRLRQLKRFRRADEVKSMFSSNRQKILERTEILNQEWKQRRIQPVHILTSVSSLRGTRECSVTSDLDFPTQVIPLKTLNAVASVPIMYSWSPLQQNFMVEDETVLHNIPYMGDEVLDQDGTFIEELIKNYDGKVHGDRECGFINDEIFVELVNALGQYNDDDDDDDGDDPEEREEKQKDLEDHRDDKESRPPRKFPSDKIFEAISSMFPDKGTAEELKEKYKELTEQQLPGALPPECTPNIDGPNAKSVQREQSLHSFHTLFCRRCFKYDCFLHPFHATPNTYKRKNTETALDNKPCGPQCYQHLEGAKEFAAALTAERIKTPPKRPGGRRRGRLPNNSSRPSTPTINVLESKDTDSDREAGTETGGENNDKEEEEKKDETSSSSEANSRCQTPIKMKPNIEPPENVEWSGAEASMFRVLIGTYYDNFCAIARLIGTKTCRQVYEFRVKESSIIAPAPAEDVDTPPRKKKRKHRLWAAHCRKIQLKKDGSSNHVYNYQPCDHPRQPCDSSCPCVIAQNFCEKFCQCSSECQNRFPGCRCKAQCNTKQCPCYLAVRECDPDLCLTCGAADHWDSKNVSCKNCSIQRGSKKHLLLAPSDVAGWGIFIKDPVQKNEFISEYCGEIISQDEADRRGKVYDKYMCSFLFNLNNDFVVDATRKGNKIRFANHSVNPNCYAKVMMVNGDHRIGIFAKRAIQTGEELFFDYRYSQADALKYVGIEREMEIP
Data set [2] has as its target von Hippel-Lindau disease tumor suppressor/Histone-lysine N-methyltransferase EZH2 (Homo sapiens, UniProt Q15910+P40337). The data set can be described thus: PROTAC activity at VHL/EZH2 in human MDA-MB-453 cells assessed as protein degradation incubated for 48 hrs by Western blot analysis. In kind it is cell-based. (In western blotting, separated proteins are transferred to a membrane and probed.)

Data set [3] has as its target T1, Histone-lysine N-methyltransferase EZH1 (Homo sapiens, UniProt Q92800).
T1 sequence (Q92800 whole entry): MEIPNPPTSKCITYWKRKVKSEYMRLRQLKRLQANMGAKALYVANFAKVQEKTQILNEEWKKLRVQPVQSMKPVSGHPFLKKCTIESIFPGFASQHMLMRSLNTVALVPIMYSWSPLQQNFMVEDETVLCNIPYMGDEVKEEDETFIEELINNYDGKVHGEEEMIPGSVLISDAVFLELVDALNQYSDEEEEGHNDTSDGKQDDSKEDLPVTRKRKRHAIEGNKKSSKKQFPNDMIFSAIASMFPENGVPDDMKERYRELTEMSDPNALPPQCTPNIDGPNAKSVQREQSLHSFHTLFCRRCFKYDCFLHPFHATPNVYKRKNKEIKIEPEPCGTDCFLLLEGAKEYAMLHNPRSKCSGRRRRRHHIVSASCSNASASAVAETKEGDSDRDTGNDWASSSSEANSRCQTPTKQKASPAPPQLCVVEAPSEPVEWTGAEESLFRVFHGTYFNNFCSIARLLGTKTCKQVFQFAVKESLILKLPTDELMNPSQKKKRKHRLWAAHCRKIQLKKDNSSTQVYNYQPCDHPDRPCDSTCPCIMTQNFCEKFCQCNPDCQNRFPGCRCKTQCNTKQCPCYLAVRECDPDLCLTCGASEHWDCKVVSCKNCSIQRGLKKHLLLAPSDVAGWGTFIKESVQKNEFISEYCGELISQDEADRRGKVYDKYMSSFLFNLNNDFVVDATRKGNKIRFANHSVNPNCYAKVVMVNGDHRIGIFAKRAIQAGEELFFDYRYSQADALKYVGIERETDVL
The data set can be described thus: Displacement of [3H-SAM] from full-length EZH1 (2 to 746 residues) (unknown origin) using a core histone substrate.

Data set [4] has as its target Protein arginine N-methyltransferase 5 (Homo sapiens, UniProt O14744). The data set can be described thus: Inhibition of PRMT5 (unknown origin) by HotSpot profiling analysis.
Data set [5] deals with SU-DHL-6. The data set can be described thus: Potency index, ratio of EPZ6438 IC50 to test compound IC50 for antiproliferative activity against human SU-DHL-6 cells. In kind it is functional.
Data set [6] deals with SU-DHL-6. The data set is described as follows: Antiproliferative activity against human SU-DHL-6 cells. The class given is functional, cell-based.
The next data set relates to MCF7. The data set is described as follows: Antiproliferative activity against human MCF7 cells assessed as inhibition of cell growth incubated for 72 hrs. The class given is functional, cell-based. The note with it: MCF7, 72 h.
The target of data set [7] is Histone deacetylase. The data set can be described thus: Inhibition of HDAC in human HeLa cells using Boc-K(Ac)-AMC as substrate. In kind it is cell-based.
Data set [8] has as its target T2, Histone-lysine N-methyltransferase EHMT2 (Homo sapiens, UniProt Q96KQ7).
T2 sequence (Q96KQ7 whole entry): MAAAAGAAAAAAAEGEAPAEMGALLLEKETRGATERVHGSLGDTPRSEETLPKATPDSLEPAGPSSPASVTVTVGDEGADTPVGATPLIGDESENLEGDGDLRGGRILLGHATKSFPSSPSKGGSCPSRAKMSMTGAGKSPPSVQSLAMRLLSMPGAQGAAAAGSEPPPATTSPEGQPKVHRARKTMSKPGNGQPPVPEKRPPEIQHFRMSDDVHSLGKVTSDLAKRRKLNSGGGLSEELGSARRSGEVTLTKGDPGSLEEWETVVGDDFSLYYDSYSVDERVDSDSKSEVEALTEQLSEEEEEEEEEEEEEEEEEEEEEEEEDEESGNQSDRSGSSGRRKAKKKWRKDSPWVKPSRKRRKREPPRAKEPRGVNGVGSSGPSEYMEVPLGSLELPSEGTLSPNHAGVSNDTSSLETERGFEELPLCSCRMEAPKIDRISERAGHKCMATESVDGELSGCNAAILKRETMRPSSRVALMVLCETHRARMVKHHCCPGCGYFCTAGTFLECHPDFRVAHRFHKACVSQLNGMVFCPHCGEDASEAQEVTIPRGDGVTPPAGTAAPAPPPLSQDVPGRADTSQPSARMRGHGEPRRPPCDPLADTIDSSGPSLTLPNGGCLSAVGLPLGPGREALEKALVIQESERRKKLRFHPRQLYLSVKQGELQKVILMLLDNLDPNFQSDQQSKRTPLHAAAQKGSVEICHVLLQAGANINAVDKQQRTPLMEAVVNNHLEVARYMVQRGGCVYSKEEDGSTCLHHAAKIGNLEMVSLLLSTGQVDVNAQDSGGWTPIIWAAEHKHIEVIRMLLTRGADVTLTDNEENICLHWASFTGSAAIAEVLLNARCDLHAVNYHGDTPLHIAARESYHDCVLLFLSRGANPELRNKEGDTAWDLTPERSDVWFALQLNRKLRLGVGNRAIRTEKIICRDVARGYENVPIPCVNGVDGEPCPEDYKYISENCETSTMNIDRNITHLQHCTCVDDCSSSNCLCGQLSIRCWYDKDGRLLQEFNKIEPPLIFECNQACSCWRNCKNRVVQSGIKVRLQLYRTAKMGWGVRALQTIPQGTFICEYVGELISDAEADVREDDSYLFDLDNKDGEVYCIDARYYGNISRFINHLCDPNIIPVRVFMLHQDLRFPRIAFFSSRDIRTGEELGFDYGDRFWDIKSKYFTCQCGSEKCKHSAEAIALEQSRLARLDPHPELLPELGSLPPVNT
The data set is described as follows: Inhibition of G9a in human MDA-MB-231 cells assessed as decrease in H3K9Me2 level by ICW assay. In kind it is cell-based.

Another data set concerns MDA-MB-231. The data set is described as follows: Antiproliferative activity against human MDA-MB-231 cells assessed as inhibition of cell growth incubated for 72 hrs. The class given is functional, cell-based. The conditions noted are these: MDA-MB-231, 72 h.
The target of data set [9] is Histone deacetylase. The data set is described as follows: Inhibition of HDAC in human K562 cells using Boc-K(Ac)-AMC as substrate. The class given is cell-based.
The subject of the next data set is A549. The data set can be described thus: Antiproliferative activity against human A549 cells assessed as inhibition of cell growth incubated for 72 hrs. The class given is functional, cell-based. The note with it: A549, 72 h.
The nature of another data set: in vitro. The note with it: human, HEK293 cells.
Data set [10] addresses Bromodomain-containing protein 4 (Homo sapiens, UniProt O60885). The data set can be described thus: Induction of BRD4 degradation in human 231MFP cells. In kind it is cell-based.

Sequence of Protein arginine N-methyltransferase 5 (O14744 whole entry): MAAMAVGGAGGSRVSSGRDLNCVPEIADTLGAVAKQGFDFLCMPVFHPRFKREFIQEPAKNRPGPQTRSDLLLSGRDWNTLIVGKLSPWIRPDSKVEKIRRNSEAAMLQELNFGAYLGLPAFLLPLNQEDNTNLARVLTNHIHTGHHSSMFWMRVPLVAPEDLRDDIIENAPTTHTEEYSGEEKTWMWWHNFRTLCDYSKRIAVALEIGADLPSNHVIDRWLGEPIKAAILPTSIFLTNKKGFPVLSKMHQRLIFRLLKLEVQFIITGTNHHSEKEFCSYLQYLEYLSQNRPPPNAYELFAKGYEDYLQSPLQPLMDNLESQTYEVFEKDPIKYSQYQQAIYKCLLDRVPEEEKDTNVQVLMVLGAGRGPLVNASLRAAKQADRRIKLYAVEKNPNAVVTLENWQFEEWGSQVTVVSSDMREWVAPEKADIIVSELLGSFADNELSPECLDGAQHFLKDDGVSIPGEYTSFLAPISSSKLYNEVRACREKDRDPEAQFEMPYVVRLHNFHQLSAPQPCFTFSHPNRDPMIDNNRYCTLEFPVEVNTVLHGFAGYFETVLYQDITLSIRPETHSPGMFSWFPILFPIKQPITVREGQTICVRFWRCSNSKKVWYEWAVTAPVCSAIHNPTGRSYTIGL
Sequence of von Hippel-Lindau disease tumor suppressor/Histone-lysine N-methyltransferase EZH2 (Q15910 whole entry): as the sequence (Q15910 whole entry, the tested form may be a part) above
Sequence of von Hippel-Lindau disease tumor suppressor/Histone-lysine N-methyltransferase EZH2 (P40337 whole entry): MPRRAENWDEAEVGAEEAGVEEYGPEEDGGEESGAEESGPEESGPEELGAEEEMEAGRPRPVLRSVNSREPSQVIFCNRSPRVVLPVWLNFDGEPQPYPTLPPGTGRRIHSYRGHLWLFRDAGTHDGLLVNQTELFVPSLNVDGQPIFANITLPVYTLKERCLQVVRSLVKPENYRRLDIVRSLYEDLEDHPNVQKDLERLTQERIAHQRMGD

`CCN(c1cc(-c2ccc(CN3CCN(C(=O)CCCCCCCC(=O)N[C@H](C(=O)N4C[C@H](O)C[C@H]4C(=O)NCc4ccc(-c5scnc5C)cc4)C(C)(C)C)CC3)cc2)cc(C(=O)NCc2c(C)cc(C)[nH]c2=O)c1C)C1CCOCC1`: the figures for the negative-log IC50 (pIC50) (in the data set with MDA-MB-453; in data set [1]; in [3]) were 5.64, 7.21 and 8.07, respectively. In addition, the DC50 in data set [2] is 0.14 µM.
In turn, `N=C(N)NCCC[C@H](N)C(=O)NCC(=O)N[C@@H](CCCN)C(=O)N[C@H](CCCNC(=N)NCCCSC[C@H]1O[C@@H](n2cnc3c(N)ncnc32)[C@H](O)[C@@H]1O)C(N)=O` showed a pIC50 in data set [4] of 9.38.
On to `CCN(c1cc(-c2ccc(CN3CCN(C(=O)c4cnn(CCOCCOCCOCCNC(=O)CN5CCN(C(=O)N6C(c7ccc(OC)cc7OC(C)C)=N[C@H](c7ccc(Cl)cc7)[C@@H]6c6ccc(Cl)cc6)CC5=O)n4)CC3)cc2)cc(C(=O)NCc2c(C)cc(C)[nH]c2=O)c1C)C1CCOCC1`, for which the “Ratio IC50” value with SU-DHL-6 [5] stood at 6. In the data set on SU-DHL-6 [6], this molecule had a pIC50 of 5.43.
For `COc1cc2nc(NCCNC(=O)CCCCC(=O)NO)nc(NC3CCN(Cc4ccccc4)CC3)c2cc1OC`, the pIC50 with MCF7 is 5.00; in [8], 5.15; with MDA-MB-231 it was 5.00; in the data set on A549, 5.00. The IC50 amounted to 13.8 µM against Histone deacetylase [7] and 5.73 µM against Histone deacetylase [9]. The molecule also showed a half-maximal inhibitory concentration (IC50) at 72 h in the data set “in vitro” of 19.9 µM.
The molecule `Cc1sc2c(c1C)C(c1ccc(Cl)cc1)=N[C@H](CC(=O)NCCCCOc1ccc(C3CC(c4ccc(Br)cc4)=NN3C(=O)CCl)cc1)c1nnc(C)n1-2` (stereo partly specified) gave a DC50 in data set [10] of 14 µM.
`CCN(c1cc(-c2ccc(CN3CCOCC3)cc2)cc(C(=O)NCc2c(C)cc(C)[nH]c2=O)c1C)C1CCOCC1` [TAZEMETOSTAT] had a pIC50 in the data set on SU-DHL-6 [6] of 4.66.
